Results from patent US5194446A, “Compounds having one or more aminosulfaonyloxy radicals useful as pharmaceuticals” (A. H. Robins Company, Incorporated, priority 1991, dated 1993).

Experiments:
[1] = hygroscopicity observation; format: physicochemical; settings: white crystals
[2] = system: adjuvant-induced arthritis test model in rats; test: adjuvant-induced arthritis test model in rats; format: in vivo, rat (adult, female Lewis)
Protocol: The test utilized to evidence antiarthritic properties of the compounds of Formula I is an adjuvant-induced arthritis test model in rats. Adjuvant arthritis was induced in adult, female Lewis rats as described by Walz et al. J. Pharmac. Exp. Ther. 178:223-231 (1971). Briefly, arthritis was induced in the rats by injection of 0.05 ml of a 1.5% suspension of killed Mycobacterium Butyricum into the right rear foot pad of each rat. Eighteen days later, those rats having a left hind paw volume (measured by mercury displacement up to a reference tatoo mark placed on the leg on Day 0) of 2.4 ml or greater were randomly assigned to treatment groups. The test, reference and control articles (as solutions or suspensions in 0.5% Tween 80) were given by gavage, beginning on Day 18 after adjuvant administration and for 5 days a week (Monday through Friday) through Day 49. Paw volumes were recorded on days 18, 29 and 50 after adjuvant injection. On Day 50, the rats were killed (carbon dioxide) and the uninjected hind limb was x-rayed and scored for bone damage on an arbitrary 1 (no damage) to 10 (maximum damage) scale.
Data collected for hind paw volumes and bone damage were analyzed by the Dunnett's t-test [Dunnett, C. W., J. Amer. Stat. Assoc., 50:1096-1121 (1955)], comparing a positive control group with several treated groups.

[3] = system: seventeen (17) days-old chick embryo calvaria; test: bone resorption in vitro induced by parathyroid hormone (PTH); format: cell-based; settings: Gallus gallus; for inhibition at 100 µM: compound 10^-4 M; for inhibition at 10 µM: compound 10^-5 M; for inhibition at 1 µM: compound 10^-6 M
Protocol: In order to determine the effectiveness of Formula I compounds in the treatment and/or prevention of osteoporosis in mammalian species an in vitro experimental procedure was utilized to measure bone resorption. The procedure utilized was as follows.
Bone resorption in vitro was measured essentially as outlined by Hall and Kenny (Pharmacology 30:339-347, 1985), except however, seventeen (17) days-old chick embryo calvaria were utilized instead of mice calvaria. Resorption is defined as the amount of calcium (mg/ml) in the medium of vehicle-treated cultures. The effects of the Formula I test compounds were determined by monitoring the effect on calcium concentrations in presence of drug relative to control calcium concentrations at a particular PTH (parathyroid hormone) concentration. The % inhibition of resorption induced by parathyroid hormone by Formula I compounds was calculated as follows: [formula] where Ca (PTH)=Ca (PTH)-Ca (Vehicle medium), and
Ca (PTH+Formula I compound)=Ca (PTH+Formula I compound)

| hygroscopicity [1] | SMILES | reduction in paw edema, significance ([2]; 1 mg/kg to 100 mg/kg by gavage, Dunnett's t-test) | bone damage score ([2]; 1 (no damage) to 10 (maximum damage) scale, x-ray of uninjected hind limb, Day 50, dosage range 1 mg/kg to 100 mg/kg by gavage, controls scored 8 to 9) | reduction in bone damage, significance ([2]; vs. controls, 1 mg/kg to 100 mg/kg by gavage, Dunnett's t-test) | inhibition at 100 µM ([3]; PTH 10^-7 M) [%] | inhibition at 100 µM ([3]; PTH 10^-8 M) [%] | inhibition at 100 µM ([3]; PTH 10^-9 M) [%] | inhibition at 100 µM ([3]; PTH 10^-10 M) [%] | inhibition at 10 µM ([3]; PTH 10^-7 M) [%] | inhibition at 10 µM ([3]; PTH 10^-8 M) [%] | inhibition at 10 µM ([3]; PTH 10^-9 M) [%] | inhibition at 10 µM ([3]; PTH 10^-10 M) [%] | inhibition at 1 µM ([3]; PTH 10^-7 M) [%] | inhibition at 1 µM ([3]; PTH 10^-8 M) [%] | inhibition at 1 µM ([3]; PTH 10^-9 M) [%] | inhibition at 1 µM ([3]; PTH 10^-10 M) [%] | inhibition at 0.1 µM ([3]; compound 10^-7 M, PTH 10^-8 M) [%] |
| --- | --- | --- | --- | --- | --- | --- | --- | --- | --- | --- | --- | --- | --- | --- | --- | --- | --- |
| slightly hygroscopic | NS(=O)(=O)OCCN1CCCC1=O [Example 63, 1-[2-[(Aminosulfonyl)oxy]ethyl]-2-pyrrolidinone] |  |  |  |  |  |  |  |  |  |  |  |  |  |  |  |  |
|  | COc1ccccc1OCC(COS(N)(=O)=O)OS(N)(=O)=O (centres unmarked) [Example 3, 1-[(2-Methoxyphenoxy)methyl]-1,2-ethanediol bisulfamate (ester)] | significant | 5.4-5.9 | significant | 10 | 40.5 | 66.5 | 100 | 21 | 37 | 86 | 100 | 21 | 29 | 100 | 100 | 23 |
